Test results: patent publication US4289775A, “Penicillins” (Karl Thomae GmbH, priority 1979, dated 1981)
Values after ≈ are worked out from the molar mass of the structure shown.

Assays:
[1] = tested on: Escherichia coli ATCC 11775; assay: serial dilution test in the microtiter system, MIC; type: cell-based; conditions: ATCC11775, E. Coli ATCC 11775, 37° C., 18-20 hours
Method: (§1) The tests were performed according to the method of the serial dilution test in the microtiter system. The effect of the test substances on bacteriostasis was examined in a fluid medium. The bacteristatic activity was examined at the following concentrations: 80, 40, 20, 10, 5, 2.5, 1.25, 0.6, 0.3, 0.08 and 0.01 μgm/ml.
(§2) The nutrient medium consisted of: 10 gm of peptone, 8 gm of meat extract oxoid, 3 gm of sodium chloride, and 2 gm of sec. sodium phosphate diluted with distilled water to 1000 ml (pH 7.2-7.4). Only in the test against streptococci was 1% of glucose added. The age of the primary cultures was about 20 hours. The standardization of the microorganism suspension was effected by means of a photometer according to the method of Eppendorf (test tube diameter 14 mm, filter 546 nm), using for comparison a barium sulfate suspension formed by the addition of 3.0 ml of 1% barium chloride solution to 97 ml of 1% sulfuric acid. After the standardization, the Streptococcus aronson was further diluted to a concentration of 1:15 and the other microorganisms to a concentration of 1:1500 using a sodium chloride solution. 16 mgm of the test compound were placed into a 10 ml measuring flask, and the flask was filled up to the mark with the solvent. The further dilution series was standardized with distilled water or the particular solvent.
(§3) The cavities of microtiter plates were filled with 0.2 ml of nutrient medium. Then, 0.01 ml of the appropriate test compound solution was added, followed by inoculation with 0.01 ml of the standardized microorganism suspension. The bacteria were incubated at 37° C. for 18-20 hours. Control tests using only the solvent were carried out simultaneously.
(§4) The measurement was carried out macroscopically to determine the minimum inhibitory concentration (the lowest still bacteriostatically effective concentration).
(§5) Staphylococcus aureus SG 511, Escherichia coli ATCC 9637 and 11775, Pseudomonas aeruginosa Hamburgensis, ATCC 10145 and Pseudomonas aeruginosa Walter, Serratia marcescens ATCC 13880, Klebsiella pneumoniae ATCC 10031 and 272 and Proteus mirabilis Hamburgensis.

[2] = tested on: Escherichia coli ATCC 9637; assay: serial dilution test in the microtiter system, MIC; type: cell-based; conditions: ATCC9637, E. Coli ATCC 9637, 37° C., 18-20 hours
Method: as §1, §2, §3, §4, §5

[3] = tested on: Klebsiella pneumoniae 272; assay: serial dilution test in the microtiter system, MIC; type: cell-based; conditions: Klebs. pneum. 272, 37° C., 18-20 hours
Method: as §1, §2, §3, §4, §5

[4] = tested on: Klebsiella pneumoniae ATCC 10031; assay: serial dilution test in the microtiter system, MIC; type: cell-based; conditions: ATCC10031, Klebs. pneum. ATCC 10031, 37° C., 18-20 hours
Method: as §1, §2, §3, §4, §5

[5] = tested on: Proteus mirabilis Hamburgensis; assay: serial dilution test in the microtiter system, MIC; type: cell-based; conditions: Prot. mirabilis ham., 37° C., 18-20 hours
Method: as §1, §2, §3, §4, §5

[6] = tested on: Pseudomonas aeruginosa ATCC 10145; assay: serial dilution test in the microtiter system, MIC; type: cell-based; conditions: ATCC10145, Pseud. aerug. ATCC 10145, 37° C., 18-20 hours
Method: as §1, §2, §3, §4, §5

[7] = tested on: Pseudomonas aeruginosa Hamburgensis; assay: serial dilution test in the microtiter system, MIC; type: cell-based; conditions: Pseud. aerug. hamb., 37° C., 18-20 hours
Method: as §1, §2, §3, §4, §5

[8] = tested on: Pseudomonas aeruginosa Walter; assay: serial dilution test in the microtiter system, MIC; type: cell-based; conditions: Pseud. aerug. Walter, 37° C., 18-20 hours
Method: as §1, §2, §3, §4, §5

[9] = tested on: Serratia marcescens ATCC 13880; assay: serial dilution test in the microtiter system, MIC; type: cell-based; conditions: ATCC13880, Serrat. marsec., 37° C., 18-20 hours
Method: as §1, §2, §3, §4, §5

E.coli ATCC 11775 = assay: in vivo test against experimental E. coli infection in mice; design: species or system Female NMRI mice; conditions: Escherichia coli, ATCC11775, sc, 168 h, dose at which 50% of the animals survived, subcutaneous, three times first day, twice second day, observation 7 days
Method: (§6) The compounds according to the invention were tested in vivo in mice against experimental infections. As pathogenic bacteria E.coli ATCC 11775 and Pseudomonas aeruginosa Walter were used. An intraperitoneal infection was induced in each mouse with 0.2 ml of a 5% mucin suspension of the bacteria corresponding to about 1.4×10^6 E. coli germs and 1.3×10^6 pseudomonas germs/mouse. Female NMRI mice were used, divided into groups of 10 animals. Two groups were untreated and the remaining groups were treated with different doses of the penicillins to be tested to determine the ED50 (dose at which 50% of the animals survived). The groups infected with E. coli were on the first day treated with the test compound three times ([…] post infectionem) and on the second day twice. The groups with the pseudomonas infection were on the first day treated with the test compound 6 times (1, 3, 5, 7, 9 and 11 hours post infectionem) and on the second and third day twice.
(§7) The observation time was in both cases 7 days.

[10] = tested on: Pseudomonas aeruginosa Walter; assay: in vivo test against experimental Pseudomonas infection in mice; design: species or system Female NMRI mice; conditions: sc, 168 h, dose at which 50% of the animals survived, subcutaneous, 6 times first day, twice on second and third day, observation 7 days
Method: as §6, §7

MIC [1] [µg/mL]	MIC [2] [µg/mL]	MIC [3] [µg/mL]	MIC [4] [µg/mL]	MIC [5] [µg/mL]	MIC [6] [µg/mL]	MIC [7] [µg/mL]	MIC [8] [µg/mL]	MIC [9] [µg/mL]	SMILES	ED50 (E.coli ATCC 11775) [mg/kg]	ED50 [10] [mg/kg]
1.25	1.25	40	20	0.6	1.25	1.25	5	0.6	COCCNc1ncc(NC(=O)N[C@@H](C(=O)N[C@@H]2C(=O)N3[C@@H]2SC(C)(C)[C@@H]3C(=O)O)c2ccc(O)cc2)c(O)n1 [A, D-α-[3-(4-hydroxy-2-{2'-methoxyethylamino}-5-pyrimidinyl)-ureido]-p-hydroxybenzyl-penicillin sodium]	2	1.5
–	–	40 (≈ 86.7 µM)	40 (≈ 86.7 µM)	1.25 (≈ 2.71 µM)	–	–	–	5 (≈ 10.8 µM)	CC1(C)S[C@@H]2[C@H](NC(=O)[C@H](NC(=O)N3CCNC3=O)c3ccccc3)C(=O)N2[C@H]1C(=O)O [F, azlocillin, reference compound]	–	–
0.6	0.3	10	10	0.3	2.5	2.5	2.5	1.25	CCOC(=O)CCNc1ncc(NC(=O)NC(C(=O)NC2C(=O)N3C2SC(C)(C)C3C(=O)O)c2ccc(O)cc2)c(O)n1 [D, D-α-[3-(2-{2'-ethoxycarbonylethylamino}-4-hydroxy-5-pyrimidinyl)-ureido]-p-hydroxy-benzylpencillin sodium]	4.2	–
0.6	0.6	10	10	0.3	1.25	1.25	5	1.25	CC1(C)S[C@@H]2[C@H](NC(=O)[C@H](NC(=O)Nc3cnc(NCCCO)nc3O)c3ccc(O)cc3)C(=O)N2[C@H]1C(=O)O [B, D-α-[3-(4-hydroxy-2-{3'-hydroxypropylamino-}-5-pyrimidinyl)-ureido]-p-hydroxy-benzylpenicillin sodium]	0.8	1.2
